Reference: publication PMC5729429, “Gimatecan exerts potent antitumor activity against gastric cancer in vitro and in vivo via AKT and MAPK signaling pathways” (Journal of Translational Medicine, 2017)
Structures can show the parent of a compound that is named as a salt.

What was measured:
[1] = test system: GC patient-derived xenografts (PDX); assay: Tumor growth inhibition in GC patient-derived xenograft (PDX) models; type: in vivo, NOD/SCID mice; settings: for TGIs (%): gimatecan 0.2 mg/kg daily oral gavage, irinotecan 20 mg/kg weekly i.p., 3 weeks; for antitumor activity compared with control groups: all five xenografts
Experimental: Establishment and serial passaging of GC patient-derived xenografts (PDX) models were as previously described. All procedures were performed under sterile conditions at an SPF facility and carried out in accordance with the guide for the Care and Use of Laboratory Animals of the National Institutes of Health. Animal experiments were approved by an independent ethics committee of Peking University Cancer Hospital.
Five PDX tissues were subcutaneously inoculated into the flanks of 6-week-old female non-obese diabetic/severe combined immunodeficiency (NOD/SCID) mice. When tumors reached 150–250 mm^3, mice were randomized to three groups (N = 5/group) with similar tumor volumes: (1) control group (physiological saline 100 µl daily, by orally gavage), (2) gimatecan group (gimatecan 0.2 mg/kg daily, by orally gavage) and (3) irinotecan group (irinotecan 20 mg/kg via weekly intraperitoneal injection). All animals were treated for 3 weeks. Tumor size and body weight were measured twice a week, and tumor volume was calculated using the following formula: V = (L × W^2)/2 (V, volume; L, length; W, width). Tumor growth inhibition (TGI) was calculated using the following formula: TGI = 1 − ΔT/ΔC × 100% (ΔT = tumor volume changes of the drug treated group, ΔC = tumor volume changes of the control group on the final day of the study).
(§1) A PDX model was established by subcutaneously transplanting tumor tissues of a patient into NOD/SCID mice and PDX 1–5 indicated PDX models from 5 different GC patients. PDX tissues were subcutaneously inoculated into mice, and when the tumor size reached 150–250 mm^3, mice (n = 5 in each group) were treated with buffer control or inhibitors. Tumor volumes were presented as mean ± SD. The antitumor activity is depicted by tumor growth inhibition (TGI). […] (ΔT = tumor volume change of the drug-treated group, ΔC = tumor volume change of the control group on the final day of the study). *p < 0.05, **p < 0.01, ***p < 0.001. b Immunohistochemical staining for Ki-67 of xenografts on day 22 of treatment from four PDX models. The ki-67 index, marker of cell proliferation, was calculated as the proportion of positive tumor cell nuclei in all tumor cells examined and labeled in red in the images. Scale bar represents 100 µm TEXT PRINTED IN THE PICTURE: (b) Vehicle: PDX 2: 100%; PDX 3: 70%; PDX 4: 70%; PDX 5: 40% | (b) Irinotecan: PDX 2: 60%; PDX 3: 70%; PDX 4: 60%; PDX 5: 50% | (b) Gimatecan: PDX 2: 60%; PDX 3: 10%; PDX 4: 40%; PDX 5: 10% DOUBTS OF THE COPYIST ABOUT THIS PICTURE: Vehicle, PDX 3: 70% or 20% (blurred red print on the image) / Vehicle, PDX 4: 70% or 20% / Vehicle, PDX 5: 40%, first digit blurred / Irinotecan, PDX 2: 60% or 80% or 50% / Irinotecan, PDX 3: 70% or 20% / Irinotecan, PDX 4: 60% or 50% or 80% / Irinotecan, PDX 5: 50% or 60% or 30% / Gimatecan, PDX 2: 60% or 50% or 80% / Gimatecan, PDX 4: 40%, first digit blurred / The measure of the percentages in panel b is not printed in the picture

[2] = test system: normal immortalized gastric epithelial cell line; assay: Growth inhibition of normal gastric epithelial cells; type: cell-based; settings: data not shown
Ki-67 in GC PDX tissues = assay: Immunohistochemistry staining of Ki-67 in xenograft tissues; type: in vivo, NOD/SCID mice; settings: day 22 of treatment
Experimental: After mice were sacrificed, xenograft tissues were isolated, and formalin-fixed paraffin embedded (FFPE) tissue sections were prepared. After deparaffinization, hydration, endogenous peroxidase treatment, and retrieval, 4-μm-thick FFPE sections were incubated with primary antibodies (1:100) overnight at 4 °C. The signal was assayed after incubation with IgG-HRP polymer (ZSGB-BIO, Beijing, China) and diaminobenzidine substrate. Sections were interpreted by pathologists from the Department of Pathology of Peking University Cancer Hospital who were blinded to this study. The scoring standard of Ki-67 was consistent with a previous report.
as §1

MGC803 cells = assay: Cell viability assay (CCK-8), MGC803; type: cell-based; settings: Homo sapiens, MGC-803, Fig. S1B 48 h exposure, 0–1 µM, read-out: IC50 antiproliferative effect
Experimental: Human GC cell lines SNU-1, HGC27 and MGC803 were purchased from Peking Union Medical College, and the NCI-N87 cell line was a gift from You-yong Lv, Ph.D. (Peking University Cancer Hospital and Institute). Cells were cultured in RPMI 1640 medium and Dulbecco’s Modified Eagle Medium (Gibco-BRL, MD, USA), respectively, supplemented with 10% fetal bovine serum (Gibco-BRL), 100 U/ml penicillin (Gibco-BRL) and […] streptomycin (Gibco-BRL). Cells were incubated in a humidified incubator (37 °C) supplemented with 5% CO2.
[…] Cell viability was measured using a Cell Counting Kit-8 (Dojindo, Kumamoto, Japan) according to the manufacturer’s instructions. Absorbance at 450 nm was measured using a microplate spectrophotometer. All experiments were repeated at least three times.

[3] = test system: AKT and MAPK signaling pathways; assay: Western blot of AKT and MAPK pathway molecules in GC cells; type: cell-based, human; settings: 48 h
Experimental: SNU-1, HGC27 and NCI-N87 cells were starved in serum-free medium overnight, exposed to inhibitors for 48 h and harvested at 70–80% confluence. Total protein was extracted from cells or xenograft tissues on ice, using RIPA Lysis Buffer (Beyotime, Shanghai, China) supplemented with complete protease inhibitor and phosphatase inhibitor cocktail (Roche, Basel, Switzerland). Protein concentration was measured using a BCA Protein Assay Kit (Beyotime, Shanghai, China), and 50 μg protein from each sample was separated by 10% SDS-PAGE. After transfer to nitrocellulose membranes (GE Healthcare, Piscataway, NJ), samples were incubated with corresponding primary antibodies diluted in 5% BSA at 4 °C overnight and then with secondary antibodies at room temperature for 1 h. Proteins were visualized with a chemiluminescent detection system (GE Healthcare), using ECL plus Western blot reagents (GE Healthcare). Western-blotting bands were quantified and normalized by ImageJ software.
Cells were starved in serum-free medium overnight, exposed to gimatecan or irinotecan for 48 h and harvested at 70–80% confluence. Total protein of SNU-1 and NCI-N87 was extracted and the expression of TopI, pAKT, pMEK, pERK, p-p38 MAPK and pJNK2 were assessed by western-blotting followed by quantification and normalization by ImageJ. All data are mean ± SD of three independent experiments. Compared with controls, *p < 0.05

| Compound | TGIs (%) ([1]; PDX model 1) | TGIs (%) ([1]; PDX model 2) | TGIs (%) ([1]; PDX model 3) | TGIs (%) ([1]; PDX model 4) | TGIs (%) ([1]; PDX model 5) | antitumor activity compared with control groups [1] | growth inhibition in normal cells [2] | Ki-67 (%) (Ki-67 in GC PDX tissues; PDX model 2, control 100) | Ki-67 (%) (Ki-67 in GC PDX tissues; PDX model 3, control 70) | Ki-67 (%) (Ki-67 in GC PDX tissues; PDX model 4, control 70) | Ki-67 (%) (Ki-67 in GC PDX tissues; PDX model 5, control 40) | IC50 (MGC803 cells) | effect on AKT and MAPK pathway molecules ([3]; NCI-N87 cells) | effect on AKT and MAPK pathway molecules ([3]; SNU-1 and HGC27 cells, pAKT, pMEK, pERK inhibited, p-p38 and pJNK2 upregulated) |
| --- | --- | --- | --- | --- | --- | --- | --- | --- | --- | --- | --- | --- | --- | --- |
| CC[C@@]1(O)C(=O)OCc2c1cc1n(c2=O)Cc2c-1nc1ccccc1c2/C=N/OC(C)(C)C [Gimatecan, 7-t-butoxyiminomethylcamptothecin] | 110.1% | 106.6% | 84.4% | 91.7% | 108.7% | significant antitumor activity | weak growth inhibition | 60% | 10% | 40% | 10% | 3.29 nM | only inhibited expression of pAKT and pERK | significantly inhibited the AKT pathway and activated the JNK2 and p38 MAPK pathway |
| CCc1c2c(nc3ccc(OC(=O)N4CCC(N5CCCCC5)CC4)cc13)-c1cc3c(c(=O)n1C2)COC(=O)[C@]3(O)CC [Irinotecan, irinotecan hydrochloride] | 75.4% | 76.1% | 24.1% | 15.1% | 40.6% | significant antitumor activity | – | 60% | 70% | 60% | 50% | – | – | – |
